How the values were obtained:
Experiment in all cases: biochemical
[1] = biological target: T1, panel of 374 wild-type kinases (Homo sapiens, UniProt O60285); settings: read-out: % Enzyme Activity (relative to DMSO controls), ARK5/NUAK1
T1 construct: purchased Reaction Biology Corporation
T1 sequence (O60285 1-661): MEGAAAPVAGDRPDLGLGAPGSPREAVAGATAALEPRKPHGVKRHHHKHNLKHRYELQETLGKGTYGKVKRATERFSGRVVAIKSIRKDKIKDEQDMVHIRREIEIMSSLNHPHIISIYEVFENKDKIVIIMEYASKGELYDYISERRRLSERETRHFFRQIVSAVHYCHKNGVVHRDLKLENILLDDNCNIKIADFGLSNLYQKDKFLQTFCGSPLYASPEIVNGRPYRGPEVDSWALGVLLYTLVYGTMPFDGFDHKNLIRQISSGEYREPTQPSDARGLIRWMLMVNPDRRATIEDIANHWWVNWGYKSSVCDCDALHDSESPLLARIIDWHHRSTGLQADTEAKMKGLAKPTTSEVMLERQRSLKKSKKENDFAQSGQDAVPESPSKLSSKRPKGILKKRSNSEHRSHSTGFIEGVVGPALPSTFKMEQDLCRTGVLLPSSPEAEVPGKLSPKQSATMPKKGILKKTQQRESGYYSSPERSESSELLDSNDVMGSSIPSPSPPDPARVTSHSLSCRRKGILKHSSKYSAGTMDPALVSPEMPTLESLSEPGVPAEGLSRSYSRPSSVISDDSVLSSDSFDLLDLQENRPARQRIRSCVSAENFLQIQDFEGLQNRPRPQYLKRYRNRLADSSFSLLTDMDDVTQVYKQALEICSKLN

[2] = biological target: T2, panel of 374 wild-type kinases (Homo sapiens, UniProt P29322); settings: read-out: % Enzyme Activity (relative to DMSO controls), EPHA8
T2 construct: purchased Reaction Biology Corporation
T2 sequence (P29322 28-1005): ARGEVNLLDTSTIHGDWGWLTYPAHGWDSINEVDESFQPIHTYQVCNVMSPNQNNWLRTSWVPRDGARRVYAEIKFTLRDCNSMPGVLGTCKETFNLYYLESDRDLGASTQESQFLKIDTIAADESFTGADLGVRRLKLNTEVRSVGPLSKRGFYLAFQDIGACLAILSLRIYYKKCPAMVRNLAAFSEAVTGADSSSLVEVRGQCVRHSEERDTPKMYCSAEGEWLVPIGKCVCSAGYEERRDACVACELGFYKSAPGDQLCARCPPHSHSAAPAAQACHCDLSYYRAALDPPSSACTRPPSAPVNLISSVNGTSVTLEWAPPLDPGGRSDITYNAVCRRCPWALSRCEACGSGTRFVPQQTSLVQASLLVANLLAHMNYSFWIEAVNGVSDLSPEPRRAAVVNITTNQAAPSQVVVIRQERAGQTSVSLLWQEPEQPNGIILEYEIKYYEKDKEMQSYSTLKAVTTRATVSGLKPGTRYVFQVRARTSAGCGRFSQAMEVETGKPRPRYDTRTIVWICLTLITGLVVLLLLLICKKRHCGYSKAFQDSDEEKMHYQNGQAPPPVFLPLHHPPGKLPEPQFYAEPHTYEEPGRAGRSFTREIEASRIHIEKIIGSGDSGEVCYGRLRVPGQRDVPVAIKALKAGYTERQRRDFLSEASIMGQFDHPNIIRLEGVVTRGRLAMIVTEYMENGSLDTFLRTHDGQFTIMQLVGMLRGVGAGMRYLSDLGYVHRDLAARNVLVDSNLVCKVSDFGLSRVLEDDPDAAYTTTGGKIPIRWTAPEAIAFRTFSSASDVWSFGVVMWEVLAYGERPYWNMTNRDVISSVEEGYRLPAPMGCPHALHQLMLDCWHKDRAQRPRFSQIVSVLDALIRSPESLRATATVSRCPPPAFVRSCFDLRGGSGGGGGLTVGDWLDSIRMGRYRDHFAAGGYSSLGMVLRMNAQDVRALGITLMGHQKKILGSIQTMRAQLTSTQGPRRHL

[3] = biological target: T3, panel of 374 wild-type kinases (Homo sapiens, UniProt P53667); settings: read-out: % Enzyme Activity (relative to DMSO controls), LIMK1
T3 construct: purchased Reaction Biology Corporation

[4] = biological target: T4, panel of 374 wild-type kinases (Homo sapiens, UniProt Q96BR1); settings: read-out: % Enzyme Activity (relative to DMSO controls), kinase SGK3/SGKL
T4 construct: purchased Reaction Biology Corporation
T4 sequence (Q96BR1 1-496): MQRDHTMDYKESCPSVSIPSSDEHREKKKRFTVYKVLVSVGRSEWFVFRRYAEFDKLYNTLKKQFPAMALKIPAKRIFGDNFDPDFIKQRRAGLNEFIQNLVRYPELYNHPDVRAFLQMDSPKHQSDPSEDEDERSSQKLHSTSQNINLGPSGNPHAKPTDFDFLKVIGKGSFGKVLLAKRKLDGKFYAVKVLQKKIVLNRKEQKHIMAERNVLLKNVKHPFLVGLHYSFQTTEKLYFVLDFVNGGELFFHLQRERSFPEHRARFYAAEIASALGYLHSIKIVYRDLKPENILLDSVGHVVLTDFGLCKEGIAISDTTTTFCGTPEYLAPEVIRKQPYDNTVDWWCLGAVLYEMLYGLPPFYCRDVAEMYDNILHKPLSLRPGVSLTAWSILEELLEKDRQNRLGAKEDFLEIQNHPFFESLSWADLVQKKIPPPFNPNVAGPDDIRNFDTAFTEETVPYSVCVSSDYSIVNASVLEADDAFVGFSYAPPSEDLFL

[5] = biological target: T5, panel of 374 wild-type kinases (Homo sapiens, UniProt Q96KB5); settings: read-out: % Enzyme Activity (relative to DMSO controls), kinase PBK/TOPK
T5 construct: purchased Reaction Biology Corporation
T5 sequence (Q96KB5 1-322): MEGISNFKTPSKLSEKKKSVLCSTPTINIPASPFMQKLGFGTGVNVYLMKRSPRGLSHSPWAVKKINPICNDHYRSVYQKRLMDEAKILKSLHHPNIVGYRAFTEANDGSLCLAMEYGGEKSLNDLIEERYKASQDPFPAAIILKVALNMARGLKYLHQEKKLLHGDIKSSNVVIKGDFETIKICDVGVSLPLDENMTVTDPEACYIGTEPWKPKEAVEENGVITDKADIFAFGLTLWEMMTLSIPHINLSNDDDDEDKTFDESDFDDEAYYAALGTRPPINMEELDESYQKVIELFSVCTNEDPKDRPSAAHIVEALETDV

T3 sequence (P53667 whole entry): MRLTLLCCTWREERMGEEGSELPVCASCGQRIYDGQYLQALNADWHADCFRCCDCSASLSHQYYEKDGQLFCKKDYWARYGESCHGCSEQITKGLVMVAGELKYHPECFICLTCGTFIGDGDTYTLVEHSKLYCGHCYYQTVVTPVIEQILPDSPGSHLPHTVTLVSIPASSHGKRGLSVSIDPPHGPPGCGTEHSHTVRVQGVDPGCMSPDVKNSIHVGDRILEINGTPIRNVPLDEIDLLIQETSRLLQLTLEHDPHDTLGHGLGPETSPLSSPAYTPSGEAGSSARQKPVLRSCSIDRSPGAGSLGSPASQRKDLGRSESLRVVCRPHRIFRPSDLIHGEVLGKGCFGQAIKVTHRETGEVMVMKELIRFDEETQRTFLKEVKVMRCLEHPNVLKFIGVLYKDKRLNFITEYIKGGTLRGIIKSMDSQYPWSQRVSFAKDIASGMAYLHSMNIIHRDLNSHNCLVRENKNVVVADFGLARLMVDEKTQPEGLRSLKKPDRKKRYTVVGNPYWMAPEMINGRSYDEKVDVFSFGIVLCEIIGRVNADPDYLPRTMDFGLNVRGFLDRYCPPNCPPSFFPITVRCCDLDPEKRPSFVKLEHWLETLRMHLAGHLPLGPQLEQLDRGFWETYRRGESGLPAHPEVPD

SMILES | remaining activity at 5 µM [1] [%] | remaining activity at 5 µM [2] [%] | remaining activity at 5 µM [3] [%] | remaining activity at 5 µM [4] [%] | remaining activity at 5 µM [5] [%] | remaining activity at 10 µM ([1]; 10 uM) [%] | remaining activity at 10 µM ([2]; 10 uM) [%] | remaining activity at 10 µM ([3]; 10 uM) [%] | remaining activity at 10 µM ([4]; 10 uM) [%] | remaining activity at 10 µM ([5]; 10 uM) [%]
O=C(Nc1cnn(-c2csc(C(=O)NC3COC3)c2)c1)Nc1ccccc1Cl [Compound 17, 4-(4-(3-(2-chlorophenyl)ureido)-1H-pyrazol-1-yl)-N-(oxetan-3-yl)thiophene-2-carboxamide] | 97.9 | 103 | 96.2 | 93.8 | 115 |  |  |  |  | 
Cc1sc(C(=O)NC2COC2)cc1-n1cc(NC(=O)Nc2c(F)cccc2Cl)cn1 [Compound 27, 4-(4-(3-(2-chloro-6-fluorophenyl)ureido)-1H-pyrazol-1-yl)-5-methyl-N-(oxetan-3-yl)thiophene-2-carboxamide] |  |  |  |  |  | 96.9 | 91.7 | 105 | 90.1 | 88.5
O=C(Nc1cnn(-c2csc(C(=O)NC3COC3)c2)c1)Nc1c(F)cccc1Cl [Compound 25, 4-(4-(3-(2-chloro-6-fluorophenyl)ureido)-1H-pyrazol-1-yl)-N-(oxetan-3-yl)thiophene-2-carboxamide] | 95.2 | 93.8 | 104 | 95.3 | 98.2 |  |  |  |  | 

From patent US20240246942A1, “KINASE INHIBITORS FOR THE TREATMENT OF NEURODEGENERATIVE DISEASES” (priority 2020, published 2024)
